Assay [1] deals with Sodium-dependent dopamine transporter (Homo sapiens, UniProt Q01959). The assay is described as follows: Displacement of [3H]WIN-35428 from human recombinant DAT by scintillation proximity assay. In general terms: Loss of bound radioactivity is the signal in a displacement assay; it reports binding, not function.
The target of assay [2] is Sodium-dependent serotonin transporter (Homo sapiens, UniProt P31645). The assay is described as follows: Displacement of [3H]citalopram from human recombinant SERT scintillation proximity assay.
The target in assay [3] is Sodium-dependent noradrenaline transporter (Homo sapiens, UniProt P23975). The assay is described as follows: Displacement of [3H]nisoxetine from human recombinant NET by scintillation proximity assay.

This is an account of results in ChEMBL document CHEMBL1817647, “1-Heteroaryl-6-(3,4-dichlorophenyl)-3-azabicyclo[4.1.0]heptane: further insights into a class of triple re-uptake inhibitors” (Bioorg Med Chem, 2011).

Sequence of Sodium-dependent serotonin transporter (P31645 whole entry): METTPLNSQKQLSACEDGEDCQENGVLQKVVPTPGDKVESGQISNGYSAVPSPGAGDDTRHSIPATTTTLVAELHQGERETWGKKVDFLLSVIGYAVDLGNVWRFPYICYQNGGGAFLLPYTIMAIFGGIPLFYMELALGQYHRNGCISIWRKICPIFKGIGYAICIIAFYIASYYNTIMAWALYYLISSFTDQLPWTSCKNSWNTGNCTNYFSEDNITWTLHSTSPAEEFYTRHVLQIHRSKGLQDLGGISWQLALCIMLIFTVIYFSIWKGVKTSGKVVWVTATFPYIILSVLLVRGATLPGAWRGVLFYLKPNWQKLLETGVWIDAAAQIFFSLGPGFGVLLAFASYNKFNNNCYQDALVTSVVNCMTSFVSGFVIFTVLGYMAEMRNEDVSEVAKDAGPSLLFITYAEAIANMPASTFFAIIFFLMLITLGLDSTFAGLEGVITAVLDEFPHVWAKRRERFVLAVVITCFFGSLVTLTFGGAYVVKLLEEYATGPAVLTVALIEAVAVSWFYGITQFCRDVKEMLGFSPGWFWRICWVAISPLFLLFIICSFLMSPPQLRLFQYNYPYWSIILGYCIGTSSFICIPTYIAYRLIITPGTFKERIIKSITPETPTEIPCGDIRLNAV
Sequence of Sodium-dependent noradrenaline transporter (P23975 whole entry): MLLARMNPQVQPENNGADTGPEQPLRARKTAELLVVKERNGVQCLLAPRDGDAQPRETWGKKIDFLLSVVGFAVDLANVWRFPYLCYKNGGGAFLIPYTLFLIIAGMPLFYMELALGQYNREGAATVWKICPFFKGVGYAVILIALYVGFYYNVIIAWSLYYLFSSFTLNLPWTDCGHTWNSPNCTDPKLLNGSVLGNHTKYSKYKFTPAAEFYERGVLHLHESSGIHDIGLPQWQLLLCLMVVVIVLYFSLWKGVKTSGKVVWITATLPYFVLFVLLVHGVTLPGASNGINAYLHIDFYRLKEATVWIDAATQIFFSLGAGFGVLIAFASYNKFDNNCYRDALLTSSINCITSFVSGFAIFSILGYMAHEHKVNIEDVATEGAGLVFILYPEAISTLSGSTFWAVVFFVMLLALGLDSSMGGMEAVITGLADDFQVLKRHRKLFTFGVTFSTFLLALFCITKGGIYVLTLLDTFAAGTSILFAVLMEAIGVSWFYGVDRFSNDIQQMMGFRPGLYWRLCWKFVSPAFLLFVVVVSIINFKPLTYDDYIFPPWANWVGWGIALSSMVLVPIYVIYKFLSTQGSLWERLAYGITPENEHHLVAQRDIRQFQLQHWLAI
Sequence of Sodium-dependent dopamine transporter (Q01959 whole entry): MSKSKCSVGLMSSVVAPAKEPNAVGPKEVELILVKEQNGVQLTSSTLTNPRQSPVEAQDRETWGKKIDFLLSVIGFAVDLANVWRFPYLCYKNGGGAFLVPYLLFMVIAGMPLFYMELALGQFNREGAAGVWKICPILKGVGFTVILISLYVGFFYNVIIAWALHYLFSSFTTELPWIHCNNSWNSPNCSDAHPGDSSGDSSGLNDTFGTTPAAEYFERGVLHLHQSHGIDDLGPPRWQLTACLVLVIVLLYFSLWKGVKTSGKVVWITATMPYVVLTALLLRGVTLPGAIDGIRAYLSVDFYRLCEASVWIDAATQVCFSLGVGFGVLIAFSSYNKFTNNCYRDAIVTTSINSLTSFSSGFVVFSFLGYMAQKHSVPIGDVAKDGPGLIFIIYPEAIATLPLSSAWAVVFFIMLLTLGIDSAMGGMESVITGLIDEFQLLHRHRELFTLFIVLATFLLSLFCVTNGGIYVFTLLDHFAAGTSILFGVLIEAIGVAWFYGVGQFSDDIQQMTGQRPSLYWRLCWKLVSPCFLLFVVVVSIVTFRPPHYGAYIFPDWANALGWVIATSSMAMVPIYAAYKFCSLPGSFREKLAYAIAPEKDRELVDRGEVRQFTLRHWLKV

Broadly, the Ki is the equilibrium dissociation constant of an inhibitor or competing ligand from its target. For `N#Cc1ccn(CC23CNCC[C@]2(c2ccc(Cl)c(Cl)c2)C3)c1` (single isomer, unassigned; enantiomer 1), the figures for the Ki in assay [1], in assay [2] and in assay [3] were 12.6 nM, 0.631 nM and 31.6 nM, respectively.

Take `Cc1csc([C@@]23CNCC[C@]2(c2ccc(Cl)c(Cl)c2)C3)n1` (racemic): the Ki was 0.158 nM in assay [1], 0.501 nM in assay [2] and 0.398 nM in assay [3].

Regarding `CC(C)(C)c1ccn(C[C@@]23CNCC[C@]2(c2ccc(Cl)c(Cl)c2)C3)n1` (racemic), the inhibitory constant (Ki) in assay [1] was 6.31 nM; in assay [2] it was 0.251 nM; in assay [3], 50.1 nM.

Consider `Cc1cnc([C@@]23CNCC[C@]2(c2ccc(Cl)c(Cl)c2)C3)o1` (racemic), for which the Ki in assay [1] is 1 nM; in assay [2], 6.31 nM; in assay [3], 6.31 nM.

For the molecule `CC(C)c1nnnn1C[C@@]12CNCC[C@]1(c1ccc(Cl)c(Cl)c1)C2` (racemic), the results for the inhibition constant (Ki) in assay [1], in assay [2] and in assay [3] were 63.1 nM, 63.1 nM and 398 nM, respectively.

With `Cc1noc([C@@]23CNCC[C@]2(c2ccc(Cl)c(Cl)c2)C3)n1` (racemic), the inhibition constant Ki was 0.794 nM in assay [1], 7.94 nM in assay [2] and 31.6 nM in assay [3].

Consider `CC(C)c1nnn(C[C@@]23CNCC[C@]2(c2ccc(Cl)c(Cl)c2)C3)n1` (racemic), for which the Ki in assay [1] was 25.1 nM; in assay [2], 0.794 nM; in assay [3] it was 398 nM.

`FC(F)(F)c1ccnn1C[C@@]12CNCC[C@]1(c1ccc(Cl)c(Cl)c1)C2` (racemic): the Ki in assay [1] is 1.58 nM; in assay [2] it was 2 nM; in assay [3], 10 nM.

Turning to `FC(F)(F)c1ccn(C[C@@]23CNCC[C@]2(c2ccc(Cl)c(Cl)c2)C3)n1` (racemic), the Ki in assay [1] was 25.1 nM; in assay [2] it was 2 nM; in assay [3] it was 158 nM.

For `Cc1cc(C(F)(F)F)n(C[C@@]23CNCC[C@]2(c2ccc(Cl)c(Cl)c2)C3)n1` (racemic), the figures for the inhibitory constant (Ki) in assay [1], in assay [2] and in assay [3] were 1.26 nM, 0.794 nM and 10 nM, respectively.

Regarding `Cc1nc(C)n(CC23CNCC[C@]2(c2ccc(Cl)c(Cl)c2)C3)n1` (stereo in doubt; 38), the inhibition constant (Ki) was 200 nM in assay [1], 39.8 nM in assay [2] and 1580 nM in assay [3].

Regarding `Cc1cc([C@@]23CNCC[C@]2(c2ccc(Cl)c(Cl)c2)C3)no1` (racemic), the Ki was 2 nM in assay [1], 7.94 nM in assay [2] and 39.8 nM in assay [3].

Consider `Cc1ccc(C)n1C[C@@]12CNCC[C@]1(c1ccc(Cl)c(Cl)c1)C2` (racemic), for which the figures for the Ki in assay [1], in assay [2] and in assay [3] were 20 nM, 2.51 nM and 20 nM, respectively.

For `Cc1cc(C(F)(F)F)nn1C[C@@]12CNCC[C@]1(c1ccc(Cl)c(Cl)c1)C2` (racemic), the inhibition constant (Ki) in assay [1] was 2 nM; in assay [2], 1 nM; in assay [3], 25.1 nM.

Take `Cc1ccn(CC23CNCC[C@]2(c2ccc(Cl)c(Cl)c2)C3)c1` (some centres not stated): the Ki was 31.6 nM in assay [1], 0.501 nM in assay [2] and 39.8 nM in assay [3].

`Cc1cc(C)n(CC23CNCC[C@]2(c2ccc(Cl)c(Cl)c2)C3)n1` (single isomer, unassigned; enantiomer 1): the inhibition constant Ki was 158 nM in assay [1], 15.8 nM in assay [2] and 501 nM in assay [3].

Regarding `Cc1cc(C)n(C[C@@]23CNCC[C@]2(c2ccc(Cl)c(Cl)c2)C3)n1` (racemic), the inhibition constant Ki was 6.31 nM in assay [1], 0.398 nM in assay [2] and 1.58 nM in assay [3].

For the molecule `Clc1ccc([C@]23CCNCC2(Cn2ncc4ccccc42)C3)cc1Cl` (some centres not stated), the Ki in assay [1] is 15.8 nM; in assay [2], 0.251 nM; in assay [3], 50.1 nM.

For `N#Cc1cccn1C[C@@]12CNCC[C@]1(c1ccc(Cl)c(Cl)c1)C2` (racemic), the values for the inhibitory constant (Ki) in assay [1], in assay [2] and in assay [3] were 12.6 nM, 2.51 nM and 39.8 nM, respectively.

For `Cc1ncoc1C[C@@]12CNCC[C@]1(c1ccc(Cl)c(Cl)c1)C2` (racemic), the Ki is 12.6 nM in assay [1], 3.16 nM in assay [2] and 25.1 nM in assay [3].

Regarding `Cc1cc(C)n(C[C@@]23CNCC[C@]2(c2ccc(Cl)c(Cl)c2)C3)c1` (racemic), the Ki is 7.94 nM in assay [1], 2 nM in assay [2] and 20 nM in assay [3].

As to `Cc1cnn(C[C@@]23CNCC[C@]2(c2ccc(Cl)c(Cl)c2)C3)c1` (racemic), the Ki in assay [1] is 126 nM; in assay [2], 0.794 nM; in assay [3], 79.4 nM.

As to `Cc1coc(C[C@@]23CNCC[C@]2(c2ccc(Cl)c(Cl)c2)C3)n1` (racemic), the Ki was 63.1 nM in assay [1], 2 nM in assay [2] and 31.6 nM in assay [3].

Take `Cc1csc(C23CNCC[C@]2(c2ccc(Cl)c(Cl)c2)C3)n1` (stereo in doubt; 7): the Ki was 20 nM in assay [1], 15.8 nM in assay [2] and 31.6 nM in assay [3].

For the molecule `N#Cc1ccnn1C[C@@]12CNCC[C@]1(c1ccc(Cl)c(Cl)c1)C2` (racemic), the values for the inhibition constant Ki in assay [1], in assay [2] and in assay [3] were 20 nM, 5.01 nM and 31.6 nM, respectively.

Regarding `Cc1csc(C[C@@]23CNCC[C@]2(c2ccc(Cl)c(Cl)c2)C3)n1` (racemic), the figures for the Ki in assay [1], in assay [2] and in assay [3] were 6.31 nM, 0.1 nM and 0.631 nM, respectively.

For `Cc1ccn(CC23CNCC[C@]2(c2ccc(Cl)c(Cl)c2)C3)n1` (single isomer, unassigned; enantiomer 1), the Ki is 316 nM in assay [1], 20 nM in assay [2] and 1000 nM in assay [3].

For the molecule `Clc1ccc([C@]23CCNC[C@@]2(Cn2cncn2)C3)cc1Cl` (racemic), the Ki in assay [1] is 200 nM; in assay [2], 3.98 nM; in assay [3], 100 nM.

In the case of `Clc1ccc([C@]23CCNCC2(Cn2ccc4ccccc42)C3)cc1Cl` (some centres not stated), the Ki is 20 nM in assay [1], 1.26 nM in assay [2] and 63.1 nM in assay [3].

As for `N#Cc1ccn(C[C@@]23CNCC[C@]2(c2ccc(Cl)c(Cl)c2)C3)n1` (racemic), the inhibition constant (Ki) is 25.1 nM in assay [1], 1 nM in assay [2] and 25.1 nM in assay [3].

As to `Clc1ccc([C@]23CCNC[C@@]2(Cn2cccc2)C3)cc1Cl` (racemic), the Ki in assay [1] is 15.8 nM; in assay [2] it was 0.398 nM; in assay [3], 10 nM.

As to `Cc1ccnn1CC12CNCC[C@]1(c1ccc(Cl)c(Cl)c1)C2` (stereo in doubt; 16), the inhibition constant (Ki) was 100 nM in assay [1], 20 nM in assay [2] and 316 nM in assay [3].

On to `Cc1nc(C)n(C[C@@]23CNCC[C@]2(c2ccc(Cl)c(Cl)c2)C3)n1` (racemic), for which the Ki in assay [1] was 25.1 nM; in assay [2], 3.16 nM; in assay [3], 39.8 nM.

On to `Clc1ccc([C@]23CCNCC2(Cn2cc4ccccc4n2)C3)cc1Cl` (some centres not stated), for which the Ki is 3.98 nM in assay [1], 0.2 nM in assay [2] and 50.1 nM in assay [3].
